According to publication PMC8509428, “The Phenoxyalkyltriazine Antagonists for 5-HT6 Receptor with Promising Procognitive and Pharmacokinetic Properties In Vivo in Search for a Novel Therapeutic Approach to Dementia Diseases” (International Journal of Molecular Sciences, 2021):
Read-outs that look alike come from different tables or passages of the source.

Key:
[1] = Bi-directional Caco-2 permeability assay; type: in vitro ADME; conditions: human, pH 7.4, Caco-2, 10 µM, triplicate
rats [2] = experiment: Exploratory activity measured in the EPM test; type: in vivo, rat; conditions: mean ± SEM
Protocol: The experiment was performed using an EPM apparatus (details see above). Total ambulation (the total distance covered by a rat, and ambulation along X and Y axis) was taken to discern drug effects on general activity from those on open-arm exploration, during a 5-min test period (i.e., the time equal to the observation period in the EPM test). Rats’ behavior was not videotaped during the test.

5-HT7R = conditions: ± SD; read-out: Ki 5-HT7 (converted); cited from earlier work
[3] = target: human serotonin 5-HT6 receptor (Homo sapiens, UniProt P50406); experiment: Functional assay for 5-HT6 receptor (cAMP, 1321N1 cells)
SH-SY5Y cells = experiment: Intracellular ROS, DCFH-DA assay (neuroprotection); type: cell-based, human; conditions: SH-SY5Y neuroblastoma cells
Protocol: ROS measurement was assayed by 2′,7′-Dichlorofluorescin diacetate (DCFH-DA, Sigma D6883). […] Briefly, SH-SY5Y cells (4 × 10^3 cells/well) were seeded in a black-sided, clear-bottom 384-well plate (Life Technologies, Warsaw, Poland) in DMEM without phenol red (Life Technologies, Warsaw, Poland) supplemented with 5% FBS and cultured for 24 h. The next day, the medium was removed, the cells were washed once with HBSS and treated for 45 min with non-fluorescent dye DCFH-DA (final concentration 25 μM, freshly prepared in warm HBSS). […] After that, toxic agents were added: H2O2 (200 μM), oxaliplatin (OXA, 25 μM) and rotenone (ROT, 32.5 μM) and the cells were incubated for 5 h. In our preliminary experiments, different concentration of toxic agents was tested to choose the convenient one that leads to 50% cell death. As a positive control, the cells were incubated alone with toxic agents. As a vehicle control, the cells were incubated with HBSS with 0.1% DMSO. In the presence of ROS, the non-fluorescent dye DCFH-DA is oxidized, producing fluorescent dichlorofluorescein (DCF). Fluorescence was measured at Ex/Em = 485/535 nm using the microplate reader EnSpire.

rats [4] = experiment: Forced swim test (FST); type: in vivo, rat; conditions: for Immobility Time: 60 min before test, mean ± SEM
Protocol: The experiment was carried out according to the method of [54]. On the first day of the experiment, the animals were gently individually placed in Plexiglas cylinders (40 cm high, 18 cm in diameter) containing 15 cm of water maintained at 23–25 °C for 15 min. On removal from water, the rats were placed for 30 min in a Plexiglas box under 60-W bulb to dry. On the following day (24 h later), the rats were replaced in the cylinder and the total duration of immobility was recorded during the whole 5-min test period. The immobility was assigned when no additional activity was observed other than that necessary to keep the rat’s head above the water. Fresh water was used for each animal.

[5] = Metabolic stability in rat liver microsomes; type: in vitro ADME
Protocol: The tested 5-HT6R ligands (50 µM) were incubated in the presence of RLMs (1 mg/mL) in 10 mM Tris–HCl buffer (37 °C). The LC/MS analyses with additional MS ion fragmentation of the products and substrates were performed to determine the most probable structures of 5-HT6R ligands’ metabolites. LC/MS Waters ACQUITY™ TQD system with the TQ Detector (Waters, Milford, CT, USA).

PAMPA permeability = type: in vitro ADME; conditions: PBS pH 7.4, 5 h, triplicate, read-out: Pe (PAMPA permeability coefficient) ± SD
Protocol: The 96-well Pre-coated PAMPA Plate System Gentest™ that was used was obtained from Corning (Tewksbury, MA, USA). […] 200 μL/well of PBS was added to the acceptor wells. All compounds were analyzed in triplicate. The plate was incubated at room temperature for 5 h. Then, the 50 μL was aspirated from each well and diluted next with 50 µL solution of an internal standard (IS). The compounds’ concentrations in acceptor and donor wells were estimated by the UPLC-MS analyses, which were performed by LC/MS Waters ACQUITY™ TQD system with the TQ Detector (Waters, Milford, CT, USA). The permeability coefficients (Pe, cm/s) were calculated according described previously formulas.

CYP3A4 = target: T1, CYP3A4 (Homo sapiens, UniProt P08684); experiment: CYP3A4 P450-Glo assay; type: in vitro ADME
T1 construct: purchased Promega
Protocol: The luminescent CYP3A4 P450-Glo™ Promega® (Madison, WI, USA) was used for the investigation of potential drug-drug interactions. All assays and protocols were described before. The compounds were tested in triplicate at the final concentrations in the range from 0.01 to 25 μM. The luminescent signal was measured by using a microplate reader EnSpire PerkinElmer (Waltham, MA, USA).

hepatoma HepG2 cell line = experiment: Hepatotoxicity, HepG2 viability (MTS); type: cell-based; conditions: 0.1–100 µM, 72 h
Protocol: Cells were grown under previously described conditions. […] The cells’ viability was determined by CellTiter 96® AQueous Non-Radioactive Cell Proliferation Assay (MTS), which was purchased from Promega® (Madison, WI, USA). The absorbance was measured using a microplate reader EnSpire (PerkinElmer, Waltham, MA USA) at 490 nm. All compounds were tested in quadruplicate.

human 5-HT6R = conditions: ± SD; read-out: Ki 5-HT6 (converted); cited from earlier work
[6] = 1321-N1, read-out: 5-HT6 Antagonist Mode Emax
[7] = 1321-N1, read-out: 5-HT6R Agonist Mode Emax
[8] = estimated from MS spectra supported by in silico data

Sequence of human serotonin 5-HT6 receptor (P50406 whole entry): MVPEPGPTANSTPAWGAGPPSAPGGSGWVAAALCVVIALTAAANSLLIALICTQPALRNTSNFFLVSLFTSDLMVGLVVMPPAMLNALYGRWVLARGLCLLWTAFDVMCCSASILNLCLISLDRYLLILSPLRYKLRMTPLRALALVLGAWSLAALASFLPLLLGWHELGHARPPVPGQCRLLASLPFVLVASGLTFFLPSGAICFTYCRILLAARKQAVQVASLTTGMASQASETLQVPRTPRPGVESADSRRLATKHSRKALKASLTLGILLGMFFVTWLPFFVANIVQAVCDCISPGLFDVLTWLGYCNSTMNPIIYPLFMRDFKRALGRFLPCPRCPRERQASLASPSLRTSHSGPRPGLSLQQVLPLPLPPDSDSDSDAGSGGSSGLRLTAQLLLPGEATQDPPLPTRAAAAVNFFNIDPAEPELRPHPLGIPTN
T1 sequence (P08684 whole entry): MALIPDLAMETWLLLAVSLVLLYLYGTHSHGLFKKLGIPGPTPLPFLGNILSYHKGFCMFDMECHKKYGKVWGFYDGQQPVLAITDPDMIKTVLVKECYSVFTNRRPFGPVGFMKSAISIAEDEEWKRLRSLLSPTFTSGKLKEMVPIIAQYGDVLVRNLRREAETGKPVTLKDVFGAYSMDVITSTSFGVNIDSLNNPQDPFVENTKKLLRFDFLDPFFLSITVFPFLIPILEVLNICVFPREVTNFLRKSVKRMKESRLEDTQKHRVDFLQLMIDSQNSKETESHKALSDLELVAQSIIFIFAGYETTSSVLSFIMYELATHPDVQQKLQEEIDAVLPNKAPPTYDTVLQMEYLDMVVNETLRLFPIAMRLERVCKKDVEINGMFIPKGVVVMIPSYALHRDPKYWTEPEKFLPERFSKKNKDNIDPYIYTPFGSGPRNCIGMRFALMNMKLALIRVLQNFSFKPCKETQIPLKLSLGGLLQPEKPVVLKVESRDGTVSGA

| Structure (SMILES) | Papp A→B at 2 h, 10 µM [1] [×10⁻⁶ cm/s] | Papp B→A at 2 h, 10 µM [1] [×10⁻⁶ cm/s] | Total Distance (rats [2]; 0.3 mg/kg i.p.) [cm] | X Ambulation (rats [2]; 0.3 mg/kg i.p.) | Y Ambulation (rats [2]; 0.3 mg/kg i.p.) | Total Distance (rats [2]; 1 mg/kg i.p.) [cm] | X Ambulation (rats [2]; 1 mg/kg i.p.) | Y Ambulation (rats [2]; 1 mg/kg i.p.) | Total Distance (rats [2]; 3 mg/kg i.p.) | X Ambulation (rats [2]; 3 mg/kg i.p.) | Y Ambulation (rats [2]; 3 mg/kg i.p.) | Ki (5-HT7R) [nM] | Emax [3, 6] [%] | Emax [3, 7] [%] | protective activity against rotenone-induced neurotoxicity (SH-SY5Y cells) | Immobility Time (rats [4]; 1 mg/kg i.p.) [s] | Immobility Time (rats [4]; 3 mg/kg i.p.) [s] | decrease of immobility time vs vehicle-treated group (rats [4]; 10 mg/kg) | Immobility Time (rats [4]; 10 mg/kg i.p.) [s] | parent compound remaining in the reaction mixture (Area%) ([5]; RLMs, 120 min incubation) [%] | further results |
| --- | --- | --- | --- | --- | --- | --- | --- | --- | --- | --- | --- | --- | --- | --- | --- | --- | --- | --- | --- | --- | --- |
| CCC(Oc1cccc(Cl)c1Cl)c1nc(N)nc(N2CCN(C)CC2)n1 (racemic) [Compound 2, (RS)-4-[1-(2,3-dichlorophenoxy)propyl]-6-(4-methylpiperazin-1-yl)-1,3,5-triazin-2-amine] | 50.3 ± 6.22 | 21.1 ± 2.14 | 4372 ± 132 | 180 ± 9 | 101 ± 9 | 3987 ± 281 | 149 ± 18 | 78 ± 9 | 4595± 191 F(3,23) = 2.9772; NS cm | 168 ± 6 F(3,23) = 1.9417; NS | 115 ± 7 F(3,23) = 3.1727; NS | 5200 | 96 | 5 ± 1.1 | protective activity | 223.13 ± 11.4 | 220.71 ± 4.7 | 25% | 171.38 ± 12.80 | 80 | parent structure biotransformed ([5]; RLMs, 120 min incubation): 20%; Metabolic Pathway, metabolite M1 [5, 8]: hydroxylation; Metabolic Pathway, metabolite M2 [5, 8]: hydroxylation; Metabolic Pathway, metabolite M3 [5, 8]: demethylation; Papp at 5 h (PAMPA permeability): 20.5 ± 5.4 ×10⁻⁶ cm/s; inhibition against CYP3A4 (CYP3A4; all tested concentrations (0.1 to 25 μM)): did not display an inhibition; hepatotoxicity effect, HepG2 viability (hepatoma HepG2 cell line): no hepatotoxicity effect; Ki (human 5-HT6R): 6 ± 2 nM |
| CCC(Oc1ccccc1)c1nc(N)nc(N2CCN(C)CC2)n1 (racemic) [Compound 3, (RS)-4-(4-methylpiperazin-1-yl)-6-(1-phenoxypropyl)-1,3,5-triazin-2-amine] | 3.16 ± 1.35 | 10.1 ± 0.15 | 4033 ± 340 | 151 ± 16 | 80 ± 8 | 4102 ± 291 | 136 ± 15 | 86 ± 10 | 3545 ± 136 F(3,22) = 0.9071; NS cm | 123 ± 5 F(3,22) = 0.6336; NS | 73 ± 5 F(3,22) = 0.3805; NS | 19900 | 100 | 9 ± 1.4 | protective activity | 177.50 ± 6.1 | 159.13 ± 13.3 | about 36% | 134.63 ± 16.7 | 95.7 | decrease of immobility time vs vehicle-treated group (rats [4]; 3 mg/kg): about 30%; Metabolic Pathway, metabolite M1 [5, 8]: decomposition and triple hydroxylation; Metabolic Pathway, metabolite M2 [5, 8]: hydroxylation; Papp at 5 h (PAMPA permeability): 15.1 ± 1 ×10⁻⁶ cm/s; CYP3A4 activity remaining (CYP3A4; 10 μM of compound): 64%; hepatotoxicity effect, HepG2 viability (hepatoma HepG2 cell line): no hepatotoxicity effect; Ki (human 5-HT6R): 21 nM |
